This note sets out measurements from ChEMBL document CHEMBL1150655, “Tupuseleiamides and basiliskamides, new acyldipeptides and antifungal polyketides produced in culture by a Bacillus laterosporus isolate obtained from a tropical marine habitat” (J Nat Prod, 2002).

Data set [1] is described as follows: Cytotoxicity against human diploid fibroblast cells assessed as cytopathic effect at 12.5 ug/ml. It counts as cell-based.
Data set [2] in a line: Cytotoxicity against human diploid fibroblast cells at 100 ug/ml. The format is cell-based.
Another data set deals with Candida albicans. Nature of the data set: Antimicrobial activity against Candida albicans by standard agar dilution method. It counts as functional.
The test system of another data set is Aspergillus fumigatus. Nature of the data set: Antimicrobial activity against Aspergillus fumigatus by standard agar dilution method. The format is functional.

Converted amounts (≈) assume the structure as drawn.

With `C[C@@H]1[C@H](O)[C@@H](C)/C=C/C=C/C=C/C=C/C=C/C=C/C=C/[C@H](O[C@@H]2O[C@H](C)[C@@H](O)[C@H](N)[C@@H]2O)C[C@@H]2O[C@](O)(C[C@@H](O)C[C@@H](O)[C@H](O)CC[C@@H](O)C[C@@H](O)CC(=O)O[C@H]1C)C[C@H](O)[C@H]2C(=O)O` [AMPHOTERICIN B], the Activity entry in data set [1] and in data set [2] was “Toxic” throughout.

As to `CC[C@@H](C)[C@H](OC(=O)/C=C/c1ccccc1)[C@H](C)[C@H](O)C/C=C/C=C\C(N)=O` [BASILISKAMIDE A], the MIC against Candida albicans came to 1 µg/mL (≈ 2.59 µM); against Aspergillus fumigatus, 2.5 µg/mL (≈ 6.49 µM).

As to `CC[C@@H](C)[C@H](O)[C@H](C)[C@@H](C/C=C/C=C\C(N)=O)OC(=O)/C=C/c1ccccc1` [BASILISKAMIDE B], the figures for the MIC against Candida albicans and in the data set with Aspergillus fumigatus were 3.1 µg/mL (≈ 8.04 µM) and 5 µg/mL (≈ 13 µM), respectively.
